Experimental data as given in patent US9603980B2, “Layer-by-layer stereocomplexed polymers as drug depot carriers or coatings in medical devices” (Cardinal Health Switzerland 515 GmbH, priority 2008, dated 2017).

Assays:
[1] = Drug concentration in liquid formulations (liquid chromatography / HPLC assay); type: physicochemical
Description: In accordance with exemplary embodiments of the present invention, a series of liquid formulations were developed for the local or regional delivery of water insoluble compounds such as sirolimus and its analogs, including CCI-779, ABT-578 and everolimus, through weeping balloons and catheter injection needles. […] These liquid formulations increase the apparent solubility of the pharmacologically active but water insoluble compounds by two to four orders of magnitude as compared to the solubility limits of the compounds in water. These liquid formulations rely on the use of a very small amount of organic solvents such as Ethanol (typically less than two percent) and a larger amount of safe amphiphilic (of or relating to a molecule having a polar, water soluble group attached to a non-polar, water insoluble […]) excipients such as polyethylene glycol (PEG 200, PEG 400) and vitamin E TPGS to enhance the solubility of the compounds. These liquid formulations of highly water insoluble compounds are stable and readily flowable at room temperature. Certain excipients, such as Vitamin E TPGS and BHT may be utilized to enhance the storage stability of sirolimus compounds through their anti-oxidation properties. […]

[2] = In vivo release kinetics from stent coatings, porcine pharmacokinetics studies
Description: The topcoat is two hundred micro grams.
(§1) The basecoat is applied to Bx Velocity® stents and implanted into Yorkshire pigs.
as §1

[3] = test system: human smooth muscle cells; test: Cladribine Example: PDGF-stimulated cell proliferation, cell count on day six; type: cell-based; conditions: from IC50 values
Experimental: To assess the ability of cladribine to prevent cell proliferation, human smooth muscle or endothelial cells (Clonetics, Walkersville, Md.) were seeded at a density of 2000 cells/cm^2 (approximately 3600 cells/well) into each well of 12-well plates and cultured with 1.5 ml of growth medium containing five percent fetal calf serum (FCS). After twenty-four hours, the growth medium was changed and fresh medium containing 10 ng/ml platelet-derived growth factor AB (PDGF AB; LIFE Technologies), as well as various concentrations of cladribine (0.001-10,000 nM) were added with triplicate wells. Medium was replaced with fresh cladribine-containing medium after three days. On day six, cells were detached by trypsinization to yield a cell suspension, lightly centrifuged to pellet and then counted manually using a Neubauer hemocytometer system. Cell viability was assessed by trypan blue exclusion.

[4] = test system: human coronary artery smooth muscle cells; test: Anti-proliferative activity in non-synchronized cultured cells stimulated with two percent fetal bovine serum; type: cell-based
Description: The multiple curves represent various concentrations of mycophenolic acid ranging from zero to one thousand nanomolar concentrations.
FIG. 58 illustrates, in graphical format, the anti-proliferative activity of cladribine in non-synchronized cultured human coronary artery smooth muscle cells stimulated with two percent fetal bovine serum.
The multiple curves represent various concentrations of cladribine ranging from zero to nine hundred nanomolar concentrations.

cell viability = test: Cell viability assay; type: cell-based
Description: (§2) The multiple curves represent various concentrations of topotecan ranging from zero to three hundred nanomolar concentrations.
(§3) The multiple curves represent various concentrations of etoposide ranging from zero to eight hundred nanomolar concentrations.

[5] = test system: human coronary artery smooth muscle cells; test: Anti-proliferative activity in synchronized cultured cells stimulated with two percent fetal bovine serum; type: cell-based
Description: as §2, §3
The multiple curves represent various concentrations of Panzem® ranging from zero to 100 micromolar concentrations.

[6] = test system: human coronary artery smooth muscle cells; test: Antiproliferative effects of PX867 on cultured cells; type: cell-based
Description: A PI3 kinase inhibitor can affect restinosis when administered by local or systemic delivery alone or in combination with sirolimus. FIGS. 87 and 88 illustrate the antiproliferative effects of PX867 on cultured human coronary artery smooth muscle cells alone (FIG. 87) or in combination with sirolimus (FIG. 88). […] Curve 8702 illustrates the percent inhibition for various concentrations. In FIG. 88, the six curves 8802, 8804, 8806, 8808, 8810 and 8812 represent various concentrations of PX867 with various concentrations of sirolimus. […] More specifically, curve 8812 illustrates the percent inhibition for a 240 nM PX-867 concentration. […] This may be compared to curve 8804 which represents a 15 nM PX-867 concentration. As one can see, the percent inhibition increases as the concentration of sirolimus increases. Accordingly, a potent PI3 kinase inhibitor, such as PX-867, can improve the inhibition of coronary artery smooth muscle cell proliferation either as a stand alone treatment or via combination with another restenotic agent, such as sirolimus.

[7] = test system: human coronary artery smooth muscle cell; test: MTS cytotoxicity assay; type: cell-based; conditions: concentrations up to 30,000.00 nanomolar (6.6 to 30,000.00 nanomolar tested)
Description: Typically, a control is utilized to determine baseline toxicity.

[8] = Porcine drug elution PK study of dual drug eluting coating; type: in vivo; conditions: after eight (8) days of implantation, single-layer coating of FIG. 83
Description: Another critical parameter for the performance of the thrombus resistance of a device coated with cilostazol is the duration of the drug release from the coating. This is of particular significance in the two weeks after device implantation. In the porcine drug elution PK studies of the dual drug eluting coating, both cilostazol and sirolius were slowly released from the coating, resulting in a sustained drug release profile. The purpose of the porcine PK study is to assess the local pharmacokinetics of a drug eluting stent at a given implantation time. Normally three stents are implanted in three different coronary arteries in a pig for a given time point and then retrieved for total drug recovery analysis. The stents are retrieved at predetermined time points; namely, 1, 3 and 8 days. The stents are extracted and the total amount of drug remaining on the stents is determined by analysis utilizing HPLC (high performance liquid chromatography) for total drug amount. The difference between the original amount of drug on the stent and the amount of drug retrieved at a given time represents the amount of drug released in that period. The continuous release of drug into surrounding arterial tissue is what prevents the neointimal growth and restenosis in the coronary artery. A normal plot represents the percentage of total drug released (%, y-axis) vs. time of implantation (day, x-axis). […]

tumor cell lines = conditions: cited from earlier work
[9] = test system: human coronary artery smooth muscle cell; test: Inhibition of coronary artery smooth muscle cell proliferation by trichostatin A, in vitro cell culture study; type: cell-based
Description: FIG. 51 is a graph of the inhibition of coronary artery smooth muscle cells by trichostatin A in a cell culture study.

## CO[C@H]1C[C@@H]2CC[C@@H](C)[C@@](O)(O2)C(=O)C(=O)N2CCCC[C@H]2C(=O)O[C@H]([C@H](C)C[C@@H]2CC[C@@H](OC(=O)C(C)(CO)CO)[C@H](OC)C2)CC(=O)[C@H](C)/C=C(\C)[C@@H](O)[C@@H](OC)C(=O)[C@H](C)C[C@H](C)/C=C/C=C/C=C/1C [CCI-779]
[1]; ethanol less than two percent, Vitamin E TPGS, water
  concentration in the final solution (HPLC assay): 15000 µg/mL

## Nc1nc(Cl)nc2c1ncn2[C@H]1C[C@H](O)[C@@H](CO)O1 [Cladribine, 2-chlorodeoxyadenosine]
[2]; Yorkshire pigs, EVA/BMA basecoat, BMA topcoat, Bx Velocity stents
  in vivo elution from polymeric stent coating, compared with co-loaded drug: elutes more rapidly than rapamycin
[3]
  potency as inhibitor of smooth muscle cells relative to endothelial cells: approximately twice
[4]; cladribine 56.25 to 900 nanomolar
  effect of addition to cells treated with rapamycin: increases the percent inhibition of rapamycin alone
[4]; non-synchronized cells, two percent fetal bovine serum
  inhibition of human coronary artery smooth muscle cell proliferation: completely inhibits

## COc1cc([C@@H]2c3cc4c(cc3[C@@H](O[C@@H]3O[C@@H]5CO[C@@H](C)O[C@H]5[C@H](O)[C@H]3O)[C@H]3COC(=O)[C@H]23)OCO4)cc(OC)c1O [Etoposide, etoposide]
Cell viability; concentrations up to ten micromolar
  cytotoxicity: non-cytotoxic
[5]; etoposide 255.7 to eight-hundred nanomolar
  effect of addition to cells treated with rapamycin: increases the percent inhibition of rapamycin alone

## COC[C@H]1OC(=O)/C(=C\N2CCCC2)C2=C(O)C(=O)C3=C([C@H](OC(C)=O)C[C@]4(C)C(=O)CC[C@@H]34)[C@]21C [PX-867]
[6]; PX867 alone, concentration of about 10^−6 (unit not given)
  inhibition of coronary artery smooth muscle cell proliferation: one hundred
[6]; PX-867 15 to 240 nM with various concentrations of sirolimus
  combination with sirolimus: strong synergistic effect

## COc1cc2c(cc1O)CC[C@@H]1[C@@H]2CC[C@]2(C)[C@@H](O)CC[C@@H]12 [Panzem®, 2-methoxyestradiol]
[7]
  human coronary artery smooth muscle cell survival: do not reduce human coronary artery smooth muscle cell survival
[5]; Panzem 0.813 to 100 micromolar
  effect of addition to cells treated with rapamycin: increases the percent of inhibition of rapamycin alone
[5]; agent alone
  inhibition of human coronary artery smooth muscle cell proliferation in vitro: extremely effective inhibitor

## CC[C@@]1(O)C(=O)OCc2c1cc1n(c2=O)Cc2cc3c(CN(C)C)c(O)ccc3nc2-1 [Topotecan, topotecan]
Cell viability; concentrations up to one micromolar
  cytotoxicity: non-cytotoxic
[5]; topotecan 18.8 to 300 nanomolar
  effect of addition to cells treated with rapamycin: increases the percent inhibition of rapamycin alone

## COc1c(C)c2c(c(O)c1C/C=C(\C)CCC(=O)O)C(=O)OC2 [mycophenolic acid]
[2]; porcine, EVA/BMA basecoat with rapamycin and mycophenolic acid 180 μg each, with or without BMA topcoat
  in vivo release from basecoat, compared with co-loaded drug: elutes more completely over a shorter duration than the rapamycin
[4]; mycophenolic acid zero to one thousand nanomolar, leftward and upward shift
  effect of addition on the anti-proliferative rapamycin dose response curve: potentiates the anti-proliferative activity of rapamycin

## CO[C@H]1C[C@@H]2CC[C@@H](C)[C@@](O)(O2)C(=O)C(=O)N2CCCC[C@H]2C(=O)O[C@H]([C@H](C)C[C@@H]2CC[C@@H](O)[C@H](OC)C2)CC(=O)[C@H](C)/C=C(\C)[C@@H](O)[C@@H](OC)C(=O)[C@H](C)C[C@H](C)/C=C/C=C/C=C/1C [rapamycin]
[8]
  drug remaining in the drug coating: ~80%
[1]; 4 mg/ml formulation
  concentration relative to the solubility of sirolimus in water: four hundred to about one thousand
[2]; porcine, PVDF basecoat with PVDF topcoat
  in vivo release rate, compared with co-loaded drug: slower release rate than that of mycophenolic acid

## CC(/C=C/C(=O)NO)=C\[C@@H](C)C(=O)c1ccc(N(C)C)cc1 [trichostatin A]
Tumor cell lines
  anti-proliferative IC50's: low nM range
[9]
  inhibition of human coronary artery smooth muscle cell proliferation: completely inhibit
[9]; read-out: anti-proliferative IC50
  IC50: ~6 nM
